Laboratory results published in PubChem BioAssay AID1919005 (Molecular Pharmacology Branch, DTP, NCI, 2023).

System: 855422-203-R-J1-PDC complex spheroid growth
Experiment: Anticancer human tumor 855422-203-R-J1-PDC patient-derived bladder carcinoma cell line growth inhibition [AhR]
Conditions: for IC50: curve of first compound; for viability, T/C: stronger effect = lower value
Procedure, shortened: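 Spheroids combined tumor cells with HUVEC endothelial cells and human MSCs as stroma. AhR antagonists were paired with standard or investigational drugs, each dosed in half-log steps down from near clinical Cmax, or from 10 microM where Cmax was unknown.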

[1] = second compound 0.1 µM, first compound 0.0316 µM
[2] = second compound 0.1 µM, first compound 0.1 µM
[3] = second compound 0.1 µM, first compound 0.316 µM
[4] = second compound 0.1 µM, first compound 1 µM
[5] = second compound 0.1 µM, first compound 3.16 µM
[6] = second compound 0.1 µM, first compound 10 µM
[7] = second compound 0.316 µM, first compound 0.0316 µM
[8] = second compound 0.316 µM, first compound 0.1 µM
[9] = second compound 0.316 µM, first compound 0.316 µM
[10] = second compound 0.316 µM, first compound 1 µM
[11] = second compound 0.316 µM, first compound 3.16 µM
[12] = second compound 0.316 µM, first compound 10 µM
[13] = second compound 1 µM, first compound 0.0316 µM
[14] = second compound 1 µM, first compound 0.1 µM
[15] = second compound 1 µM, first compound 0.316 µM
[16] = second compound 1 µM, first compound 1 µM
[17] = second compound 1 µM, first compound 3.16 µM
[18] = second compound 1 µM, first compound 10 µM
[19] = second compound 3.16 µM, first compound 0.0316 µM
[20] = second compound 3.16 µM, first compound 0.1 µM
[21] = second compound 3.16 µM, first compound 0.316 µM
[22] = second compound 3.16 µM, first compound 1 µM
[23] = second compound 3.16 µM, first compound 3.16 µM
[24] = second compound 3.16 µM, first compound 10 µM
[25] = second compound 10 µM, first compound 0.0316 µM
[26] = second compound 10 µM, first compound 0.1 µM
[27] = second compound 10 µM, first compound 0.316 µM
[28] = second compound 10 µM, first compound 1 µM
[29] = second compound 10 µM, first compound 3.16 µM
[30] = second compound 10 µM, first compound 10 µM
[31] = second compound 0.1 µM, first compound 0.00316 µM
[32] = second compound 0.1 µM, first compound 0.01 µM
[33] = second compound 0.316 µM, first compound 0.00316 µM
[34] = second compound 0.316 µM, first compound 0.01 µM
[35] = second compound 1 µM, first compound 0.00316 µM
[36] = second compound 1 µM, first compound 0.01 µM
[37] = second compound 3.16 µM, first compound 0.00316 µM
[38] = second compound 3.16 µM, first compound 0.01 µM
[39] = second compound 10 µM, first compound 0.00316 µM
[40] = second compound 10 µM, first compound 0.01 µM
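Also: spheroids exposed to agents for seven days before readout.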
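For viability, T/C in this document: percent of DMSO vehicle control luminescence viability.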

| IC50 (second compound 0.1 µM) [nM] | IC50 (second compound 0.316 µM) [nM] | IC50 (second compound 1 µM) [nM] | IC50 (second compound 3.16 µM) [nM] | IC50 (second compound 10 µM) [nM] | Compound | viability, T/C [1] [%] | viability, T/C [2] [%] | viability, T/C [3] [%] | viability, T/C [4] [%] | viability, T/C [7] [%] | viability, T/C [8] [%] | viability, T/C [9] [%] | viability, T/C [10] [%] | viability, T/C [13] [%] | viability, T/C [14] [%] | viability, T/C [15] [%] | viability, T/C [16] [%] | viability, T/C [19] [%] | viability, T/C [20] [%] | viability, T/C [21] [%] | other results |
| --- | --- | --- | --- | --- | --- | --- | --- | --- | --- | --- | --- | --- | --- | --- | --- | --- | --- | --- | --- | --- | --- |
| > 10000 | > 10000 | > 10000 | > 10000 | > 10000 | CC(C)c1c(-c2ccccc2)nc2c(C#N)c[nH]n2c1=O + Cc1ccccc1N=Nc1ccc(NC(=O)c2ccnn2C)c(C)c1 | 98.4 | 105 | 94.5 | 92.9 | 106 | 99 | 96.9 | 104 | 95.8 | 103 | 96.5 | 101 | 94.4 | 93.7 | 89.7 | viability, T/C [5]: 89.5%; viability, T/C [6]: 89%; viability, T/C [11]: 91.2%; viability, T/C [12]: 93%; viability, T/C [17]: 91.4%; viability, T/C [18]: 90.5%; viability, T/C [22]: 88.7%; viability, T/C [23]: 89.5%; viability, T/C [24]: 82.1%; viability, T/C [25]: 81.8%; viability, T/C [26]: 83.6%; viability, T/C [27]: 76.9%; viability, T/C [28]: 86%; viability, T/C [29]: 76.5%; viability, T/C [30]: 73.6% |
| 527 | 507 | 507 | 351 | 298 | CC1COCCN1c1cc(-c2ccnn2C)c2ccnc(-c3ccn[nH]3)c2n1 (stereo not given) + Cc1ccccc1N=Nc1ccc(NC(=O)c2ccnn2C)c(C)c1 | 97.7 | 98.4 | 67.6 | 27.8 | 97.5 | 101 | 68 | 24.1 | 91 | 97.8 | 66 | 26.9 | 87.3 | 92.6 | 52.7 | viability, T/C [31]: 104%; viability, T/C [32]: 99.4%; viability, T/C [33]: 101%; viability, T/C [34]: 107%; viability, T/C [35]: 100%; viability, T/C [36]: 106%; viability, T/C [37]: 88.6%; viability, T/C [38]: 86.7%; viability, T/C [22]: 23%; viability, T/C [39]: 77.1%; viability, T/C [40]: 83.5%; viability, T/C [25]: 76.4%; viability, T/C [26]: 73%; viability, T/C [27]: 48.7%; viability, T/C [28]: 20.9% |
| > 10000 | > 10000 | > 10000 | > 10000 | 6180 | COc1ccc([C@@H](O)c2cc(-c3ncnc4cc(N5CCOCC5)ccc34)c(F)cc2Cl)nn1 + Cc1ccccc1N=Nc1ccc(NC(=O)c2ccnn2C)c(C)c1 | 99.2 | 108 | 98.3 | 96.5 | 107 | 111 | 99.8 | 102 | 107 | 102 | 106 | 96.9 | 95.9 | 100 | 95.7 | viability, T/C [5]: 87.3%; viability, T/C [6]: 71.3%; viability, T/C [11]: 90.1%; viability, T/C [12]: 70.3%; viability, T/C [17]: 87.8%; viability, T/C [18]: 63.1%; viability, T/C [22]: 98.6%; viability, T/C [23]: 77.1%; viability, T/C [24]: 54.8%; viability, T/C [25]: 87.8%; viability, T/C [26]: 91.6%; viability, T/C [27]: 86.1%; viability, T/C [28]: 86%; viability, T/C [29]: 62%; viability, T/C [30]: 41.4% |
| 372 | 207 | 207 | 173 | < 31.6 | COc1cc(C2c3cc4c(cc3C(OC3OC5COC(C)OC5C(O)C3O)C3COC(=O)C23)OCO4)cc(OC)c1O (stereo not given) + Cc1cncc(-c2nc(NCCc3c[nH]c4ccccc34)c3ncn(C(C)C)c3n2)c1 | 85.9 | 85.5 | 55.4 | 14.8 | 88.4 | 83.7 | 30.2 | 15 | 83.8 | 79.7 | 32.5 | 14.4 | 76.8 | 73.7 | 24.4 | viability, T/C [5]: 9.41%; viability, T/C [6]: 3.49%; viability, T/C [11]: 8.46%; viability, T/C [12]: 3.99%; viability, T/C [17]: 8.33%; viability, T/C [18]: 6.08%; viability, T/C [22]: 13.2%; viability, T/C [23]: 6.72%; viability, T/C [24]: 4.03%; viability, T/C [25]: 9.82%; viability, T/C [26]: 11.7%; viability, T/C [27]: 1.25%; viability, T/C [28]: 0.55%; viability, T/C [29]: 1.09%; viability, T/C [30]: 2.98% |
| < 31.6 | < 31.6 | < 31.6 | < 31.6 | < 31.6 | COc1cccc2c1C(=O)c1c(O)c3c(c(O)c1C2=O)CC(O)(C(=O)CO)CC3OC1CC(N)C(O)C(C)O1 (stereo not given) + Cc1cncc(-c2nc(NCCc3c[nH]c4ccccc34)c3ncn(C(C)C)c3n2)c1 | 19.5 | 15.4 | 2.05 | 0.85 | 22.4 | 13.7 | 1.65 | 0.73 | 17.8 | 10.3 | 4.93 | 4.6 | 17.9 | 7.51 | 2.13 | viability, T/C [5]: 1.02%; viability, T/C [6]: 1.75%; viability, T/C [11]: 0.93%; viability, T/C [12]: 1.37%; viability, T/C [17]: 0.74%; viability, T/C [18]: 1.14%; viability, T/C [22]: 1.95%; viability, T/C [23]: 1.19%; viability, T/C [24]: 0.94%; viability, T/C [25]: 4.02%; viability, T/C [26]: 1.33%; viability, T/C [27]: 0.55%; viability, T/C [28]: 0.22%; viability, T/C [29]: 0.28%; viability, T/C [30]: 0.3% |
| > 1000 | > 1000 | > 1000 | > 1000 | < 3.16 | Nc1ncn(C2CC(O)C(CO)O2)c(=O)n1 (stereo not given) + Cc1cncc(-c2nc(NCCc3c[nH]c4ccccc34)c3ncn(C(C)C)c3n2)c1 | 88.8 | 86.2 | 82 | 77.5 | 81.9 | 79.8 | 82.5 | 75 | 85.5 | 86.4 | 82.4 | 74.6 | 79.3 | 71.4 | 82 | viability, T/C [31]: 99.1%; viability, T/C [32]: 94.1%; viability, T/C [33]: 86.8%; viability, T/C [34]: 88.5%; viability, T/C [35]: 91.9%; viability, T/C [36]: 90%; viability, T/C [37]: 79.9%; viability, T/C [38]: 86.5%; viability, T/C [22]: 69%; viability, T/C [39]: 10.8%; viability, T/C [40]: 6.45%; viability, T/C [25]: 2.54%; viability, T/C [26]: 7.37%; viability, T/C [27]: 9.7%; viability, T/C [28]: 7.88% |
